# ± gives the expanded uncertainty stated by the source.
# Settings: Liquid, Closed cell (Static) method
smiles,measurement,setting,value
"F/C=C/C(F)(F)F [trans-1,3,3,3-tetrafluoropropene]",vapor or sublimation pressure,280.15 K,276.5 ± 20 kPa
same,vapor or sublimation pressure,285.18 K,328.2 ± 20 kPa
same,vapor or sublimation pressure,290.12 K,386 ± 20 kPa
same,vapor or sublimation pressure,295.11 K,452.1 ± 20 kPa
same,vapor or sublimation pressure,300.15 K,526.7 ± 20 kPa
same,vapor or sublimation pressure,305.15 K,609.7 ± 20 kPa
same,vapor or sublimation pressure,310.34 K,706.3 ± 20 kPa
same,vapor or sublimation pressure,315.18 K,805 ± 20 kPa
same,vapor or sublimation pressure,320.1 K,916.6 ± 20 kPa
same,vapor or sublimation pressure,325.17 K,1043.5 ± 20 kPa
same,vapor or sublimation pressure,330.13 K,1178.1 ± 20 kPa

# Source: the NIST ThermoML archive (doi:10.1016/j.jct.2017.03.032)
